From patent US6855511B2, “Fructosamine oxidase assay: methods and materials” (Protemix Corporation Limited, priority 1998, dated 2005)
pIC50: −log10 of the molar value. One block for each compound: values may come before it.

How the values were obtained:
Type in all cases: biochemical
[1] = system: Human fructosamine oxidase; assay: Interference of additives/anticoagulants in the fructosamine oxidase assay; conditions: additive in the reagent (Heparin 1000 U/L, EDTA 100 μM); control 100
Description: (§1) The reagent is 50 mM TES buffer pH 7.4 containing 10 μM cytochrome c (Sigma), and […] 50 μM fructosamine as glycated bovine serum albumin.
(§2) One unit of enzyme was defined as the amount which reduced 1 μmol/minute of cytochrome c in solution under the above assay conditions. The calculation factor is determined from the molar absorptivity for ferrocytochrome c (E550nm) according to the formula: U/L(μmol.min^−1.L^−1)=TV×10^3/ε550nm×SV where • TV=total reaction volume • SV=sample volume (iv) Materials
Cytochrome c is a non-specific reductant and other reducing substances in sera or anticoagulants added to the blood sample at specimen collection may interfere in the assay as shown in Table 4.

[2] = system: fructosamine oxidase; assay: Fructosamine oxidase inhibitor assay (ferricytochrome c reduction) in human blood plasma; design: velocity constant (K), fraction of the enzyme inhibited in a given period of time: dose or concentration left out as unconfirmed; conditions: human plasma sample; for pIC50: read-out: IC50, concentration of inhibitor causing 50% inactivation of the enzyme
Description: as §1, §2
An important application of the current activity assay is as a means to identify potential fructosamine oxidase antagonists and inhibitors. Fructosamine oxidase inhibitors may be hydrazine compounds which bind and block the quinone co-factor, copper chelators which bind and block the copper co-factor, or substrate analogues which mimic the normal substrate of the enzyme. […]
The effectiveness of an enzyme inhibitor is usually expressed by a velocity constant (K) which determines the fraction of the enzyme inhibited in a given period of time by a certain concentration of inhibitor. The specificity of the inhibitor for the active center of the enzyme is indicated by the concentration of inhibitor causing 50% inactivation of the enzyme (IC50). […].

[3] = system: fructosamine oxidase; assay: Specificity of the fructosamine oxidase assay for reactive oxygen species, free radical scavengers added to the reagent; conditions: free radical scavenger added to the reagent (superoxide dismutase 20 kU/L, catalase 1000 kU/L, mannitol 50 mmol/L); control 15.34 ± 0.16
Description: as §1, §2
The specificity of the assay for reactive oxygen species was tested by measuring degree of inhibition of ferricytochrome c reduction after adding the following oxygen free radical scavengers to the reaction mixture: (a) Superoxide dismutase to selectively remove superoxide; (b) catalase to selectively remove hydrogen peroxide; & (iii) mannitol to scavenge hydroxyl radicals.

- Activity compared with control [1]: 26.3%
Compound: O=C(O)CN(CCN(CC(=O)O)CC(=O)O)CC(=O)O [EDTA, ethylenediamine tetraacetic acid]

Compound: C[C@H](CS)C(=O)N1CCC[C@H]1C(=O)O [captopril]
- velocity constant (K), fraction of the enzyme inhibited in a given period of time [2]: 2.6 % per minute
- pIC50 [2]: 6.08

- velocity constant (K), fraction of the enzyme inhibited in a given period of time [2]: 15 % per minute
- pIC50 [2]: 6.30
Compound: C[C@@](Cc1ccc(O)c(O)c1)(NN)C(=O)O [carbidopa]

Compound: OC[C@@H](O)[C@@H](O)[C@H](O)[C@H](O)CO [mannitol]
- Enzyme activity [3]: 14.96 ± 0.19 U/L

- Activity compared with control [1]: 24.4%
Compound: Heparin

Compound: catalase
- Enzyme activity [3]: 12.23 ± 0.03 U/L

Compound: superoxide dismutase
- Enzyme activity [3]: 9.99 ± 0.03 U/L
